Measurements as given in patent US6921840B1 (The Trustees of the University of Pennsylvania, priority 1999, dated 2005).
Several values for one entry are separate records, joined by “and”; a condition that tells them apart may be missing. Identical values can stand only once. Like-named read-outs stand apart in the source and are kept apart here.

Experiments:
[1] = at 2 to 6 hr, Biegon et al. 1993; cited from earlier work
[2] = Biodistribution in rats after i.v. injection of radioactive tracer; type: in vivo, rat
Description: Three or four rats per group were used for each biodistribution study. While under ether anesthesia, 0.2 ml of a saline solution containing 10 μCi of radioactive tracer was injected into the femoral vein. The rats were sacrificed at the time indicated by cardiac excision while under ether anesthesia. Organs of interest were removed and weighed, and the radioactivity was counted using a Packard automatic gamma counter (Model 5000). The percent dose per organ was calculated by a comparison of the tissue counts to counts of 1% of the initial dose (100 times diluted aliquots of the injected material) measured at the same time.
Regional brain distribution in rats was measured after an i.v. injection of the radioactive tracer. Samples from different brain regions [cortex (CX), striatum (ST), hippocampus (HP), cerebellum (CB) and hypothalamus (HY)] were dissected, weighed and counted. The percentage dose/g of each sample was calculated by comparing sample counts with the counts of the diluted initial dose described above. The ratio of specific binding (SB) in each region was obtained by dividing the difference of each region from the cerebellum (percentage dose/g) with that of the cerebellum [(region-CB)/CB].

[3] = Partition coefficient octanol/buffer; type: physicochemical; conditions: n-octanol and phosphate buffer, pH 7.4
[4] = In vitro stability of radioiodinated ligand; type: physicochemical; conditions: in 50% ethanol for up to two months after radioiodination
[5] = Metabolite analysis of brain tissue; type: in vivo, rat; conditions: rats, 60 min post-injection
Description: Sixty minutes after an i.v. injection of 200-300 μCi of [^125I]IDAM into two male rats, the areas corresponding to the hypothalamus region were dissected individually. The tissues were then homogenized in 1.5 ml of 50 mM Tris buffer (pH 7.4) and the homogenates were extracted with ethyl acetate (3×1.5 ml) in the presence of the non-radioactive IDAM (100 μg). The extracted ethyl acetate layers were evaporated to near dryness and the purity of [^125I]IDAM in the condensed extracts was analyzed by HPLC (PRP-1 column; solvent: CH3CN/DMGA: 90/10; flow rate: 1 ml/min). Control samples were performed by adding 5-10 μCi of [^125I]IDAM to hypothalamus tissues followed by the same procedures used for the experimental samples to determine the extraction efficiency.

SERT [6] = molecular target: T1, SERT (Rattus norvegicus, UniProt P31652)
Description: At 60 min post i.v. injection, the animals were sacrificed by cardiac excision while under ether anesthesia. The brains were rapidly removed, placed in embedding medium (Tissue Tek, Miles Laboratory, Elkhart, Ind.) and frozen with powdered dry ice. After reaching equilibrium at −20° C. consecutive 20 μm coronal sections were cut on a cryostat microtome (Hacker Instruments, Fairfield, N.J.) thaw-mounted on microscope slides, and air-dried at room temperature. […] The microscale standards were calibrated with tissue mash standards for the value conversion to nCi/mg protein. The exposed film was developed by a Kodak automatic film processor. […] The brain sections of the pretreated rats were processed following the same procedures described above for the normal untreated rats.

SERT [7] = molecular target: T1, SERT; experiment: [125I]IDAM saturation binding to rat frontal cortical membrane homogenates; parameters: The frontal cortex of rat brain were dissected and homogenized in 30 volumes of buffer; from tissue; host or cells: rat frontal cortex membrane homogenates (male Sprague-Dawley rats, control and PCA-lesioned)
Description: The homogenates were centrifuged at 20,000 g for 20 min. The resulting pellets were then re-suspended and recentrifuged. The final pellets were suspended in the same buffer and used for in vitro binding assays.
Binding assays were performed in glass tubes (12×75 mm) with a final volume of 0.5 ml.
Various inhibitors were serially diluted with the buffer containing 0.1% BSA to overcome the stickiness and loss due to dilution. […] Incubation was carried out for 60 min at room temperature and then terminated by separation of bound from free radioligand by filtration through glass fiber filters (Schleicher & Schuell No. 25, Keene, N.H.) presoaked with 1% polyethylenimine. The filters were then washed three times with 3 ml of ice-cold […] Tris buffer and counted in a gamma counter (Packard 5000) with 70% efficiency. To study the effect of […], the homogenates were prepared in a sodium-free 50 mM Tris-HCl/5 mM KCl buffer.
Ten rats were divided into two-groups, and they were injected daily with PCA (8 mg/kg, i.p.) or saline for 3 consecutive days, respectively. The animals were sacrificed 5 days after the last injection and the frontal cortical membrane homogenates were prepared.

[8] = PCA-lesioned rats, frontal cortical membranes
[9] = control rats, frontal cortical membranes

T1 sequence (P31652 whole entry): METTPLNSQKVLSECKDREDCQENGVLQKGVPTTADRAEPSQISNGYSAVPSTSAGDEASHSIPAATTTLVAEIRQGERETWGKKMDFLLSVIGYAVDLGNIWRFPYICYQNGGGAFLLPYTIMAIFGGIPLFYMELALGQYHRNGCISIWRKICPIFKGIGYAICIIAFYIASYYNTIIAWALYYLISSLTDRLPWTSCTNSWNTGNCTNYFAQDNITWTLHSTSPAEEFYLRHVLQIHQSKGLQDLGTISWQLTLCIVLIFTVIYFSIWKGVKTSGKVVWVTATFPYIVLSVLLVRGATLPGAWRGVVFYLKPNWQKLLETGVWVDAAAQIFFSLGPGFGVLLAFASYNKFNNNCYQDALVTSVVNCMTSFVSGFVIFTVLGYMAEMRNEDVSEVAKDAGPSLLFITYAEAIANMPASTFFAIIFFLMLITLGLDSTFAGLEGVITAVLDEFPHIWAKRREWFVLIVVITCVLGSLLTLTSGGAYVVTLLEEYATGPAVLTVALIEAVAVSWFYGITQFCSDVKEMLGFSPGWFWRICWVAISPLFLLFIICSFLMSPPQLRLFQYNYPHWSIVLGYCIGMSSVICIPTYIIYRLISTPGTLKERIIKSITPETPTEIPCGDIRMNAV

## O=[N+]([O-])c1ccc2nc(N3CCNCC3)ccc2c1I [[^123I]5-I-6-NO2-quipazine, 5-iodo-6-nitroquipazine]
[1]
  specific regional binding ratio, hypothalamus: 4.0

## CN(C)Cc1ccccc1Sc1ccc([125I])cc1CO [[^125I]IDAM]
[2]
  half-time of clearance from the brain regions: less than 60 min
[2]; 2 min
  % dose/g CEREBELLUM: 1.377 ± 0.479 % dose/g
  % dose/g CORTEX: 2.353 ± 0.444 % dose/g
  % dose/g HIPPOCAMPUS: 1.485 ± 0.263 % dose/g
  % dose/g HYPOTHALAMUS: 1.782 ± 0.412 % dose/g
  % dose/g STRIATUM: 1.377 ± 0.344 % dose/g
  % dose/organ BLOOD: 7.619 ± 0.41 % dose/organ
  % dose/organ BRAIN: 2.44 % dose/organ and 2.44 ± 0.34 % dose/organ
  % dose/organ HEART: 1.303 ± 0.10 % dose/organ
  % dose/organ KIDNEY: 6.54 ± 0.26 % dose/organ
  % dose/organ LIVER: 6.46 ± 1.18 % dose/organ
  % dose/organ LUNG: 10.42 ± 1.36 % dose/organ
  % dose/organ MUSCLE: 19.06 ± 8.51 % dose/organ
  % dose/organ SKIN: 3.27 ± 0.48 % dose/organ
  % dose/organ SPLEEN: 0.31 ± 0.08 % dose/organ
  SB: specific binding = (region-CB)/CB, CORTEX: 0.709
  SB: specific binding = (region-CB)/CB, HIPPOCAMPUS: 0.079
  SB: specific binding = (region-CB)/CB, HYPOTHALAMUS: 0.294
  SB: specific binding = (region-CB)/CB, STRIATUM: 0.000
[2]; 2 min post-injection
  total radioactivity recovered from the major organs: less than 60 % of total injected dose
[2]; 30 min
  % dose/g CEREBELLUM: 0.416 ± 0.045 % dose/g
  % dose/g CORTEX: 0.820 ± .0108 % dose/g
  % dose/g HIPPOCAMPUS: 0.832 ± 0.048 % dose/g
  % dose/g HYPOTHALAMUS: 0.918 ± 0.113 % dose/g
  % dose/g STRIATUM: 0.875 ± 0.086 % dose/g
  % dose/organ BLOOD: 7.63 ± 1.03 % dose/organ
  % dose/organ BRAIN: 1.174 ± 0.062 % dose/organ
  % dose/organ HEART: 0.27 ± 0.02 % dose/organ
  % dose/organ KIDNEY: 3.48 ± 0.643 % dose/organ
  % dose/organ LIVER: 4.709 ± 0.347 % dose/organ
  % dose/organ LUNG: 1.78 ± 0.08 % dose/organ
  % dose/organ MUSCLE: 16.27 ± 0.82 % dose/organ
  % dose/organ SKIN: 6.121 ± 0.536 % dose/organ
  % dose/organ SPLEEN: 0.279 ± 0.026 % dose/organ
  SB: specific binding = (region-CB)/CB, CORTEX: 0.972
  SB: specific binding = (region-CB)/CB, HIPPOCAMPUS: 1.002
  SB: specific binding = (region-CB)/CB, HYPOTHALAMUS: 1.208
  SB: specific binding = (region-CB)/CB, STRIATUM: 1.104
[2]; 60 min
  % dose/g CEREBELLUM: 0.153 ± 0.019 % dose/g
  % dose/g CORTEX: 0.310 ± 0.060 % dose/g
  % dose/g HIPPOCAMPUS: 0.355 ± 0.016 % dose/g
  % dose/g HYPOTHALAMUS: 0.422 ± 0.066 % dose/g
  % dose/g STRIATUM: 0.257 ± 0.042 % dose/g
  % dose/organ BLOOD: 6.380 ± 0.729 % dose/organ
  % dose/organ BRAIN: 0.50 % dose/organ and 0.503 ± 0.027 % dose/organ
  % dose/organ HEART: 0.187 ± 0.008 % dose/organ
  % dose/organ KIDNEY: 1.993 ± 0.351 % dose/organ
  % dose/organ LIVER: 4.120 ± 0.766 % dose/organ
  % dose/organ LUNG: 0.931 ± 0.086 % dose/organ
  % dose/organ MUSCLE: 6.775 ± 0.145 % dose/organ
  % dose/organ SKIN: 7.538 ± 0.127 % dose/organ
  % dose/organ SPLEEN: 0.167 ± 0.027 % dose/organ
  SB: specific binding = (region-CB)/CB, CORTEX: 1.024
  SB: specific binding = (region-CB)/CB, HIPPOCAMPUS: 1.313
  SB: specific binding = (region-CB)/CB, HYPOTHALAMUS: 1.75
  SB: specific binding = (region-CB)/CB, STRIATUM: 0.673
[2]; 120 min
  % dose/g CEREBELLUM: 0.053 ± 0.005 % dose/g
  % dose/g CORTEX: 0.89 ± 0.018 % dose/g
  % dose/g HIPPOCAMPUS: 0.134 ± 0.011 % dose/g
  % dose/g HYPOTHALAMUS: 0.142 ± 0.027 % dose/g
  % dose/g STRIATUM: 0.105 ± 0.052 % dose/g
  % dose/organ BLOOD: 4.160 ± 0.150 % dose/organ
  % dose/organ BRAIN: 0.17 % dose/organ and 0.168 ± 0.029 % dose/organ
  % dose/organ HEART: 0.114 ± 0.023 % dose/organ
  % dose/organ KIDNEY: 0.832 ± 0.071 % dose/organ
  % dose/organ LIVER: 2.722 ± 0.308 % dose/organ
  % dose/organ LUNG: 0.422 ± 0.055 % dose/organ
  % dose/organ MUSCLE: 4.714 ± 0.977 % dose/organ
  % dose/organ SKIN: 6.716 ± 1.304 % dose/organ
  % dose/organ SPLEEN: 0.066 ± 0.008 % dose/organ
  SB: specific binding = (region-CB)/CB, CORTEX: 0.674
  SB: specific binding = (region-CB)/CB, HIPPOCAMPUS: 1.524
  SB: specific binding = (region-CB)/CB, HYPOTHALAMUS: 1.679
  SB: specific binding = (region-CB)/CB, STRIATUM: 0.967
[2]; 240 min
  % dose/g CEREBELLUM: 0.012 ± 0.000 % dose/g
  % dose/g CORTEX: 0.017 ± 0.003 % dose/g
  % dose/g HIPPOCAMPUS: 0.020 ± 0.003 % dose/g
  % dose/g HYPOTHALAMUS: 0.022 ± 0.011 % dose/g
  % dose/g STRIATUM: 0.018 ± 0.002 % dose/g
  % dose/organ BLOOD: 2.246 ± 0.303 % dose/organ
  % dose/organ BRAIN: 0.033 ± 0.002 % dose/organ
  % dose/organ HEART: 0.048 ± 0.004 % dose/organ
  % dose/organ KIDNEY: 0.488 ± 0.065 % dose/organ
  % dose/organ LIVER: 1.469 ± 0.189 % dose/organ
  % dose/organ LUNG: 0.220 ± 0.018 % dose/organ
  % dose/organ MUSCLE: 2.818 ± 0.208 % dose/organ
  % dose/organ SKIN: 3.851 ± 0.073 % dose/organ
  % dose/organ SPLEEN: 0.024 ± 0.004 % dose/organ
  SB: specific binding = (region-CB)/CB, CORTEX: 0.475
  SB: specific binding = (region-CB)/CB, HIPPOCAMPUS: 0.705
  SB: specific binding = (region-CB)/CB, HYPOTHALAMUS: 0.865
  SB: specific binding = (region-CB)/CB, STRIATUM: 0.508
[3]
  partition coefficient (PC): 473
[3]; read-out: partition coefficient (PC) (converted)
  logD: 2.67
[4]
  stability: radiochemical purity determined by HPLC: > 95%
[5]
  unmetabolized tracer recovered from hypothalamus region: > 95%
SERT [6]; HP
  nonspecific binding (non-paroxetine blockable): more than 70%
SERT [6]; hippocampal regions and several cortical regions
  percentage of specific binding (paroxetine blockable): less than 30%
SERT [6]; interperduncular nucleus, median raphe and dorsomedial hypothalamus
  percentage of specific binding (paroxetine blockable): more than 95%
SERT [7]; [8]
  Bmax of [125I]IDAM binding: 20±7 fmol/mg protein
  Kd: 0.05 ± 0.15 nM
  Kd of [125I]IDAM binding: no significant change
SERT [7]; after destruction of serotonergic neurons by PCA
  loss of [125I]IDAM binding to rat cortical membranes: 90%
SERT [7]; at Kd value, rat frontal cortical membranes
  nonspecific binding: < 5%
SERT [7]; [9]
  Bmax of [125I]IDAM binding: 272±30 fmol/mg protein
  Kd: 0.25 nM and 0.2 nM
